Earlier results as cited in patent publication US20070010584A1, “Compositions and methods for orthostatic intolerance” (priority 2003, published 2007).
Like-named read-outs stand apart in the source and are kept apart here.

What was measured:
[1] = in vivo
[2] = tested on: patients with OI and orthostatic tachycardia; details: in vivo
[3] = clonidine 0.1 mg PO, 13 patients with OI

Structure (SMILES): N[C@H](C(=O)O)[C@H](O)c1ccc(O)c(O)c1 [DOPS, Threo-3-(3,4-dihydroxyphenyl)serine]
- time of peak NE levels (after ingestion of DOPS): about 5 hours
- duration of increased plasma levels of DOPS and NE (after oral administration of DOPS): at least 12 hours
- time of peak plasma levels of DOPS (after oral ingestion): about 3 hours

Structure (SMILES): COc1ccc(OC)c(C(O)CNC(=O)CN)c1 (stereo not drawn) [Midodrine]
- supine and standing heart rate (patients with OI; midodrine 5-10 mg PO, 13 patients with OI): decreased both supine and standing heart rate
- half-life [1]: 30 min

Structure (SMILES): CC(C)NCC(O)COc1cccc2ccccc12 (stereo not drawn) [Propranolol]
- efficacy in OI and orthostatic tachycardia [2]: effective in a number of patients

Structure (SMILES): Clc1cccc(Cl)c1N=C1NCCN1 [clonidine]
- tolerability in OI patients (patients with OI; clonidine 0.1 mg PO): tolerate clonidine poorly
- blood pressure (patients with OI; [3]): significantly decreased blood pressure
- supine and standing heart rate (patients with OI; [3]): decreased both supine and standing heart rate
